{"source": "patent US12138293B2", "about": "(priority 2020, dated 2024)", "key": {"[1]": {"system": "nitrogen mustard (NM)-exposed cornea", "parameters": "species or system New Zealand white rabbits", "conditions": "rabbit, in vivo"}, "[2]": {"conditions": "rabbit, in vivo"}, "[3]": {"format": "physicochemical"}, "[4]": {"system": "heptanol-induced corneal erosion (chemical burn injury) in rabbit eyes", "conditions": "in vivo"}, "[5]": {"conditions": "rabbit, in vivo", "remark": "listed apart in the source"}, "[6]": {"system": "transepithelial PTK injury of rabbit corneas", "parameters": "species or system rabbits", "conditions": "in vivo"}, "[7]": {"system": "eye of Dutch Belted rabbits", "conditions": "rabbit, in vivo"}, "in vivo": {"assay": "in vivo", "conditions": "rabbit"}}, "note": "“And” between values parts separate entries of the source, which are not always exact repeats. Equal entries are not always repeated. Where two headings read alike, the source gives them in different places. Residues, ends and D or L forms follow the SMILES beside them."}
{"molecule": "CC[C@H](C)[C@H](NC(=O)[C@H](CCC(=O)O)NC(=O)[C@H](CC(C)C)NC(=O)[C@H](CC(=O)O)NC(=O)[C@H](CC(=O)O)NC(=O)[C@@H]1CCCN1C(=O)[C@H](CCCNC(=N)N)NC(=O)[C@@H]1CCCN1C(=O)[C@H](CCCNC(=N)N)NC(=O)[C@H](CCCCN)NC(=O)[C@H](CCCCN)NC(=O)[C@H](Cc1c[nH]c2ccccc12)NC(=O)[C@@H]1CCCN1C(=O)[C@H](CCCCN)NC(=O)[C@H](CCCNC(=N)N)NC(=O)[C@H](CCCNC(=N)N)NC(=O)[C@H](CC(N)=O)NC(=O)[C@@H]1CCCN1C(=O)[C@H](Cc1ccccc1)NC(=O)[C@H](Cc1c[nH]c2ccccc12)NC(=O)[C@@H](NC(=O)[C@H](CCCCN)NC(=O)[C@@H]1CCCN1C(=O)[C@H](CCC(N)=O)NC(=O)[C@H](CCCNC(=N)N)NC(=O)CCCCCNC(=O)CCCC[C@@H]1SC[C@@H]2NC(=O)N[C@@H]21)[C@@H](C)CC)C(=O)O", "note": "[aCT1, RQPKIWFPNRRKPWKK RPRPDDLEI] (HELM PEPTIDE1{[O=C1N[C@H]2[C@H](CS[C@H]2CCCCC(=O)[*:2])N1].[O=C(CCCCCN[*:1])[*:2]].R.Q.P.K.I.W.F.P.N.R.R.K.P.W.K.K.R.P.R.P.D.D.L.E.I}$$$$V2.0; N-terminus and C-terminus assumed)", "values": [{"measurement": "Corneal edema (corneal thickness)", "setting": "[1]", "result": "limited corneal edema damage"}, {"measurement": "Corneal fibroblasts/keratocytes", "setting": "[1]", "result": "protection of corneal fibroblasts/keratocytes"}, {"measurement": "Expression of COX-2", "setting": "[1]", "result": "reduced"}, {"measurement": "Formation of new blood vessels in the corneal stroma", "setting": "[1]", "result": "limited the formation of new blood vessels"}, {"measurement": "Inflammatory cell infiltration in the corneal stroma (H&E)", "setting": "[1]", "result": "significantly decreases inflammatory cell infiltration"}, {"measurement": "MMP-9 expression in the stroma", "setting": "[1]", "result": "reduction in MMP-9 expression"}, {"measurement": "VEGF expression", "setting": "[1]", "result": "decreased"}, {"measurement": "Vitreous humor levels", "setting": "[2]", "result": "quantifiable levels"}, {"measurement": "Whole blood concentration, all other samples", "setting": "[2]", "result": "below the lower limit of quantitation (LLOQ)"}, {"measurement": "Loss of Purity", "setting": "[3]; pH 6.5", "result": "0.67% and 0.24% and 0.03% and 0.76% and 1.05%"}, {"measurement": "Loss of Purity (%)", "setting": "[3]; pH 6.5", "result": "0.44% and 0.39% and 0.30% and 0.19% and 0.06%"}, {"measurement": "Loss of Purity (%)", "setting": "[3]; pH 7", "result": 0.33, "unit": "%"}, {"measurement": "Loss of Purity (%)", "setting": "[3]; pH 7.5", "result": 0.50, "unit": "%"}, {"measurement": "Corneal healing measured by central corneal thickness", "setting": "[4]", "result": "accelerated corneal healing"}, {"measurement": "Corneal healing measured by fluorescein staining", "setting": "[4]", "result": "accelerated corneal healing"}, {"measurement": "Maximum tolerated dose (MTD)", "setting": "[5]", "result": "no maximum tolerated dose (MTD) was identified"}, {"measurement": "Microscopic findings in the eye tissues", "setting": "[5]", "result": "no microscopic findings"}, {"measurement": "No observed adverse effect level (NOAEL)", "setting": "[5]", "result": 1.0, "unit": "μmol/eye"}, {"measurement": "Tolerability (cage-side or clinical observations, body weight, clinical pathology, organ weight, necropsy)", "setting": "[5]", "result": "well-tolerated and did not result in any adverse findings"}, {"measurement": "Corneal healing (fluorescein staining)", "setting": "[6]", "result": "accelerated corneal healing"}, {"measurement": "Contact of saline formulation with the ocular surface", "setting": "[7]", "result": "did not remain in contact with the ocular surface for a period of time sufficient"}, {"measurement": "Tmax", "setting": "in vivo; both", "result": 15, "unit": "min"}, {"measurement": "tissue level at time at 0.25 h", "setting": "in vivo; both, topical or ocular, 0.1 umol/eye/dose, Retinal tissue concentration", "result": "1.91 to 24.2", "unit": "ng/g"}, {"measurement": "tissue level at time at 0.25 h", "setting": "in vivo; female, topical or ocular, 0.1 umol/eye/dose, Cornea mean level", "result": "181 ± 50", "unit": "ng/g"}, {"measurement": "tissue level at time at 0.25 h", "setting": "in vivo; female, topical or ocular, 0.1 umol/eye/dose, Palpebral conjunctiva highest mean concentration", "result": "2730 ± 697", "unit": "ng/g"}, {"measurement": "level at 0.25 h", "setting": "in vivo; male, topical or ocular, 0.1 umol/eye/dose", "result": "3.26 ± 5.28", "unit": "ng/mL"}, {"measurement": "tissue level at time at 0.25 h", "setting": "in vivo; male, topical or ocular, 0.1 umol/eye/dose, Aqueous humor mean level", "result": "115 ± 76.3", "unit": "ng/g"}, {"measurement": "tissue level at time at 0.25 h", "setting": "in vivo; male, topical or ocular, 0.1 umol/eye/dose, Palpebral conjunctiva highest mean concentration", "result": "939 ± 228", "unit": "ng/g"}]}
